{"source": "patent US10059694B2", "about": "“2-aminopyrimidine compound and pharmaceutical composition and use thereof” (Shanghai Institute of Materia Medica, Chinese Academy of …, priority 2014, dated 2018)", "key": {"[1]": {"tested_on": "human lung cancer NCI-H1975 nude mice subcutaneous xenografts", "experiment": "NCI-H1975 nude mice subcutaneous xenograft", "assay_type": "in vivo", "description": "The tumor tissue in the growth stage was taken and cut into small pieces of about 1.5 mm^3, which were inoculated subcutaneously in nude mice under aseptic conditions. When the tumor was grown to about 100 mm^3, nude mice were random allocated. […] The mice were gavage administered once a day for 11 days, and the solvent control group (injection water containing 1% Tween 80) was set. During the whole experiment, the diameter of the transplanted tumor was measured twice a week with a vernier caliper and the weights of the mice were weighed. The volume of tumor was calculated as follows: TV=½×a×b^2 (Where a,b respectively represent long and wide)"}, "EGFR^wt": {"molecular_target": "T1, EGFR^wt (Homo sapiens, UniProt P00533)", "T1 construct": "purchased Millipore", "T1 sequence (P00533 25-1210)": "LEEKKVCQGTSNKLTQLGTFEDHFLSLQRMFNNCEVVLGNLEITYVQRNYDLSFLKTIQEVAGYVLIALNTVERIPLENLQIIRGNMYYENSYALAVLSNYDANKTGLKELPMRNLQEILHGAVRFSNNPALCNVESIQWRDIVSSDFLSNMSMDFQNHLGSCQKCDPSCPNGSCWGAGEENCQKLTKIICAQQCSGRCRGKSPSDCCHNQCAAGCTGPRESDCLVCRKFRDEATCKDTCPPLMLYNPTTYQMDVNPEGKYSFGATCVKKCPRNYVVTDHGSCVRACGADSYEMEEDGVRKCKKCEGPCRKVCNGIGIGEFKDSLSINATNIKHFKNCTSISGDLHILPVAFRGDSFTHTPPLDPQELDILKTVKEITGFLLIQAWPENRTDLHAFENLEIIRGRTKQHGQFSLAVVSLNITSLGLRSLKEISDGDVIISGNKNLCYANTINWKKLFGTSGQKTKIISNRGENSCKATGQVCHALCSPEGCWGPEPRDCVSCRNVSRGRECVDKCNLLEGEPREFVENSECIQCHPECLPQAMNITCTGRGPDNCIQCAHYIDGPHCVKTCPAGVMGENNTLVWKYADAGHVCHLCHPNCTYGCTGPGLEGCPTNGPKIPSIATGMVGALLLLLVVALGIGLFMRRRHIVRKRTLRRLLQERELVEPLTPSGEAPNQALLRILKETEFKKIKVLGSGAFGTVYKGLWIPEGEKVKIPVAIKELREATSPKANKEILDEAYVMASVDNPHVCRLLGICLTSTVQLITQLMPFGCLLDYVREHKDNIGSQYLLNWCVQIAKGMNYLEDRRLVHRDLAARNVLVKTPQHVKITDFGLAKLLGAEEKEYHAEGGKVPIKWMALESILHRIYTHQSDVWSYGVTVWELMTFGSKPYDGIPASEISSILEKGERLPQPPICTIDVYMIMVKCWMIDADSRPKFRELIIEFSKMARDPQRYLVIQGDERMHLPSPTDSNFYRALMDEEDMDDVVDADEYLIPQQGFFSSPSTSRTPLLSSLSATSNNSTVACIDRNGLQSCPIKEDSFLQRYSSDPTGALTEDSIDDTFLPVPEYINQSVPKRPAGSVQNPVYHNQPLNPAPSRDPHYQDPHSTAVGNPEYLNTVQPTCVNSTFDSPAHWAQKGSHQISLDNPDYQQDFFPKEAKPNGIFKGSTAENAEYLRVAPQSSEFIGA", "experiment": "kinase inhibitory activity test (ELISA), EGFR^WT", "assay_type": "biochemical", "conditions": "ATP 5 μM, 1 hour at 37° C.", "how_it_was_run": "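ELISA on poly(Glu,Tyr)4:1-coated plates; kinase reaction with 5 μM ATP (final) in 50 mM HEPES pH 7.4, 50 mM MgCl2, 5 mM MnCl2, 0.2 mM Na3VO4, 1 mM DTT, 1 h at 37° C. Phosphotyrosine detected via PY99/HRP and OPD at 490 nm; IC50 by four-parameter fit.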"}, "[2]": {"tested_on": "human epidermal carcinoma A431 cell line", "experiment": "SRB proliferation assay, A431 cells", "assay_type": "cell-based", "conditions": "A-431, SRB, 72 h, read-out: IC50 A431", "how_it_was_run": "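A431 cells in log phase are allowed to adhere for 24 h, then exposed to compound for 72 h in triplicate alongside DMSO controls. Cells are fixed with cold 10% TCA, stained with SRB, dye is solubilised in 10 mM Tris pH 10.5, and OD is read at 515 nm.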"}, "[3]": {"tested_on": "human non-small cell lung cancer NCI-H1975 cell line", "experiment": "SRB proliferation assay, NCI-H1975 cells", "assay_type": "cell-based", "conditions": "NCI-H1975, SRB, 72 h, read-out: IC50 NCI-H1975", "how_it_was_run": "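NCI-H1975 cells in log phase were allowed to adhere for 24 h, then treated with compound in triplicate for 72 h. Cells were TCA-fixed and SRB-stained, with OD read at 515 nm; IC50 derived from growth inhibition versus DMSO control.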"}}}
{"molecule": "C=CC(=O)Nc1cc(Nc2ncc(Cl)c(Nc3ccc4ccccc4c3)n2)c(OC)cc1N(C)CCN(C)C", "note": "[CCB120067, N-((5-((5-chloro-4-((naphthalen-2-yl)amino))pyrimidin-2-yl)amino)-2-((N-methyl-N-dimethylaminoethyl)amino)-4-methoxyphenyl)acrylamide]", "values": [{"measurement": "inhibition of tumor growth", "setting": "[1]; 10 mg/kg gavage once a day for 11 days, FIG. 3", "result": "significantly inhibit"}, {"measurement": "tumor regression", "setting": "[1]; 10 mg/kg gavage, after 7 days of administration", "result": "completely subsided"}, {"measurement": "inhibitory activity on tumor growth compared with positive control", "setting": "[1]; CCB120067 10 mg/kg versus CO1686 100 mg/kg", "result": "stronger than anti-tumor effect of CO1686 at 100 mg/kg dose"}, {"measurement": "IC50", "setting": "EGFR^wt", "result": 0.0094, "unit": "µM"}, {"measurement": "IC50", "setting": "[2]", "result": 0.134, "unit": "µM"}, {"measurement": "IC50", "setting": "[3]", "result": "0.001 to 0.056", "unit": "µM"}]}
